Experiment: Stability of cannabinoid compounds and Vitamin E components in Beverage 2 (AB Red) by LCMSMS
Type: physicochemical

Measured: Stability of Plant-Derived Cannabinoid Compounds in AB Red

CCCCCc1cc(O)c2c(c1)OC(C)(C)[C@@H]1CCC(C)=C[C@@H]21 [D9 THC, delta-9-tetrahydrocannabinol, reference compound]
12.9 µg/mL: stored at 8° C., 25 days | stored at 8° C., 30 days | stored at 21-25° C., 0 days | stored at 21-25° C., 11 days | stored at 21-25° C., 17 days | stored at 21-25° C., 22 days | stored at 21-25° C., 23 days
12.0 µg/mL: stored at 8° C., 510 days
12.5 µg/mL: stored at 8° C., 60 days | stored at 8° C., 360 days | stored at 21-25° C., 10 days | stored at 21-25° C., 24 days | stored at 21-25° C., 25 days | stored at 21-25° C., 240 days | stored at 21-25° C., 270 days
12.2 µg/mL: stored at 8° C., 480 days | stored at 21-25° C., 60 days | stored at 21-25° C., 420 days | stored at 21-25° C., 450 days | stored at 21-25° C., 540 days
13.0 µg/mL: stored at 8° C., 90 days | stored at 21-25° C., 1 days | stored at 21-25° C., 2 days | stored at 21-25° C., 12 days
12.6 µg/mL: stored at 8° C., 180 days | stored at 8° C., 270 days | stored at 21-25° C., 3 days | stored at 21-25° C., 360 days
11.8 µg/mL: stored at 8° C., 570 days | stored at 21-25° C., 480 days | stored at 21-25° C., 570 days
12.3 µg/mL: stored at 8° C., 210 days | stored at 21-25° C., 510 days
12.1 µg/mL: stored at 21-25° C., 330 days | stored at 21-25° C., 390 days
12.4 µg/mL: stored at 8° C., 120 days | stored at 8° C., 240 days | stored at 8° C., 300 days | stored at 8° C., 390 days | stored at 8° C., 420 days | stored at 8° C., 450 days | stored at 21-25° C., 5 days | stored at 21-25° C., 16 days | stored at 21-25° C., 26 days | stored at 21-25° C., 30 days | stored at 21-25° C., 120 days | stored at 21-25° C., 150 days | stored at 21-25° C., 210 days | stored at 21-25° C., 300 days
12.8 µg/mL: stored at 8° C., 150 days | stored at 21-25° C., 9 days | stored at 21-25° C., 18 days | stored at 21-25° C., 19 days | stored at 21-25° C., 90 days | stored at 21-25° C., 180 days
11.9 µg/mL: stored at 8° C., 540 days
12.7 µg/mL: stored at 8° C., 26 days | stored at 8° C., 29 days | stored at 8° C., 330 days | stored at 21-25° C., 8 days | stored at 21-25° C., 15 days | stored at 21-25° C., 29 days

From patent US20260130395A1, “Water Dispersible Botanical Compositions” (Aquila Black Limited, priority 2021, published 2026)
